Source: the supplement of paper PMC10307832

What was measured:
Test in all cases: relative viability (nuclei count vs DMSO), 5 days (fraction); higher = more cells survive
Dinaciclib = compound: CCc1cnn2c(NCc3ccc[n+]([O-])c3)cc(N3CCCC[C@H]3CCO)nc12 [Dinaciclib]
Outline: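 Viability was defined as treated-well nuclei divided by vehicle-well nuclei, with the median taken over replicate plates. Cells from lung cancer lines sat overnight at 37 °C in 1536-well plates, received five √10-spaced library-drug doses by pinning on vehicle-anchored plates, and grew 5 days without medium change before one-step fixation, permeabilisation and Hoechst staining, 4× imaging and MetaXpress nuclear counts. Only plates with control CV under 25% and at least one doubling were kept.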

Dinaciclib + Vorinostat = compound: CCc1cnn2c(NCc3ccc[n+]([O-])c3)cc(N3CCCC[C@H]3CCO)nc12 [Dinaciclib] + O=C(CCCCCCC(=O)Nc1ccccc1)NO [Vorinostat] (partner 1 µM)
Outline: (§1)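 Medians of duplicate plates are given as relative viability. That measure is the nuclei count in treated wells divided by the count in vehicle wells. Counts were taken on 4× images of lung cancer cell lines in 1536-well plates, 5 days after pin-tool dosing the day after seeding with one drug alone or a fixed anchor-drug dose plus five library-drug doses (not always all listed) in √10 steps.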

Dinaciclib + Linsitinib = compound: CCc1cnn2c(NCc3ccc[n+]([O-])c3)cc(N3CCCC[C@H]3CCO)nc12 [Dinaciclib] + C[C@]1(O)C[C@@H](c2nc(-c3ccc4ccc(-c5ccccc5)nc4c3)c3c(N)nccn32)C1 [Linsitinib] (partner 1 µM)
Outline: as §1

Dinaciclib + Luminespib = compound: CCc1cnn2c(NCc3ccc[n+]([O-])c3)cc(N3CCCC[C@H]3CCO)nc12 [Dinaciclib] + CCNC(=O)c1noc(-c2cc(C(C)C)c(O)cc2O)c1-c1ccc(CN2CCOCC2)cc1 [Luminespib] (partner 0.01 µM)
Outline: as §1

Dinaciclib + Crizotinib = compound: CCc1cnn2c(NCc3ccc[n+]([O-])c3)cc(N3CCCC[C@H]3CCO)nc12 [Dinaciclib] + C[C@@H](Oc1cc(-c2cnn(C3CCNCC3)c2)cnc1N)c1c(Cl)ccc(F)c1Cl [Crizotinib] (partner 1 µM)
Outline: as §1

Cell Line | relative viability (Dinaciclib; 0.009487 µM) | relative viability (Dinaciclib; 0.03 µM) | relative viability (Dinaciclib; 0.09487 µM) | relative viability (Dinaciclib; 0.3 µM) | relative viability (Dinaciclib + Vorinostat; first compound 0.009487 µM) | relative viability (Dinaciclib + Vorinostat; first compound 0.03 µM) | relative viability (Dinaciclib + Vorinostat; first compound 0.09487 µM) | relative viability (Dinaciclib + Vorinostat; first compound 0.3 µM) | relative viability (Dinaciclib + Linsitinib; first compound 0.009487 µM) | relative viability (Dinaciclib + Linsitinib; first compound 0.03 µM) | relative viability (Dinaciclib + Linsitinib; first compound 0.09487 µM) | relative viability (Dinaciclib + Linsitinib; first compound 0.3 µM) | relative viability (Dinaciclib + Luminespib; first compound 0.009487 µM) | relative viability (Dinaciclib + Luminespib; first compound 0.03 µM) | relative viability (Dinaciclib + Luminespib; first compound 0.09487 µM) | relative viability (Dinaciclib + Luminespib; first compound 0.3 µM) | relative viability (Dinaciclib + Crizotinib; first compound 0.009487 µM) | relative viability (Dinaciclib + Crizotinib; first compound 0.03 µM) | relative viability (Dinaciclib + Crizotinib; first compound 0.09487 µM) | relative viability (Dinaciclib + Crizotinib; first compound 0.3 µM)
LOU-NH91 | 0.958 | 0.311 | 0.261 | 0.269 | 0.825 | 0.286 | 0.241 | 0.275 | 0.94 | 0.467 | 0.236 | 0.245 | 0.324 | 0.294 | 0.224 | 0.16 | 0.738 | 0.348 | 0.29 | 0.267
LU99A | 0.838 | 0.199 | 0.139 | 0.133 | 0.332 | 0.119 | 0.0932 | 0.109 | 0.336 | 0.154 | 0.145 | 0.141 | 0.177 | 0.149 | 0.12 | 0.124 | 0.315 | 0.131 | 0.125 | 0.122
LXF-289 | 1.07 | 0.924 | 0.134 | 0.101 | 0.813 | 0.257 | 0.0809 | 0.0855 | 0.994 | 0.315 | 0.0869 | 0.071 | 0.642 | 0.106 | 0.068 | 0.0731 | 0.754 | 0.274 | 0.0748 | 0.0784
NCI-H23 | 0.633 | 0.176 | 0.109 | 0.126 | 0.512 | 0.143 | 0.104 | 0.122 | 0.508 | 0.142 | 0.105 | 0.109 | 0.197 | 0.172 | 0.168 | 0.148 | 0.47 | 0.171 | 0.107 | 0.0907
NCI-H322M | 0.721 | 0.333 | 0.289 | 0.258 | 0.898 | 0.396 | 0.347 | 0.399 | 0.925 | 0.477 | 0.224 | 0.229 | 0.431 | 0.243 | 0.265 | 0.229 | 1.05 | 0.66 | 0.191 | 0.182
NCI-H358 | 0.785 | 0.153 | 0.104 | 0.131 | 0.339 | 0.0713 | 0.0813 | 0.0842 | 0.552 | 0.149 | 0.185 | 0.176 | 0.276 | 0.0982 | 0.0922 | 0.0842 | 0.373 | 0.0972 | 0.135 | 0.144
NCI-H441 | 1.13 | 0.162 | 0.146 | 0.158 | 1.07 | 0.34 | 0.174 | 0.131 | 0.811 | 0.129 | 0.115 | 0.113 | 0.262 | 0.18 | 0.177 | 0.193 | 0.595 | 0.134 | 0.0914 | 0.101
NCI-H460 | 0.885 | 0.0593 | 0.0265 | 0.0308 | 0.57 | 0.0214 | 0.0191 | 0.0236 | 0.434 | 0.0071 | 0.0074 | 0.0155 | 0.031 | 0.015 | 0.0141 | 0.0129 | 0.688 | 0.0158 | 0.0092 | 0.011
NCI-H520 | 0.915 | 0.276 | 0.155 | 0.18 | 0.531 | 0.153 | 0.15 | 0.138 | 0.615 | 0.128 | 0.129 | 0.177 | 0.239 | 0.231 | 0.222 | 0.217 | 0.573 | 0.102 | 0.124 | 0.128
NCI-H596 | 0.977 | 0.846 | 0.261 | 0.18 | 0.629 | 0.613 | 0.252 | 0.158 | 0.847 | 0.468 | 0.169 | 0.193 | 0.564 | 0.566 | 0.174 | 0.186 | 1.06 | 0.746 | 0.196 | 0.196
NCI-H647 | 0.713 | 0.0972 | 0.0714 | 0.0765 | 0.494 | 0.079 | 0.0693 | 0.0788 | 0.674 | 0.0709 | 0.0658 | 0.0602 | 0.133 | 0.0786 | 0.049 | 0.0752 | 0.606 | 0.0725 | 0.0657 | 0.0722
NCI-H650 | 0.874 | 0.21 | 0.159 | 0.137 | 0.336 | 0.146 | 0.129 | 0.157 | 0.481 | 0.161 | 0.139 | 0.124 | 0.54 | 0.185 | 0.112 | 0.0731 | 0.638 | 0.152 | 0.131 | 0.135
NCI-H661 | 1.03 | 0.246 | 0.201 | 0.19 | 0.804 | 0.235 | 0.211 | 0.211 | 0.452 | 0.184 | 0.144 | 0.2 | 0.906 | 0.195 | 0.169 | 0.148 | 1.02 | 0.474 | 0.145 | 0.166
NCI-H727 | 0.975 | 0.411 | 0.222 | 0.245 | 1.33 | 1.15 | 0.362 | 0.312 | 0.268 | 0.193 | 0.0908 | 0.158 | 0.404 | 0.253 | 0.301 | 0.282 | 0.534 | 0.171 | 0.174 | 0.183
NCI-H838 | 0.88 | 0.173 | 0.128 | 0.137 | 0.496 | 0.146 | 0.145 | 0.15 | 0.547 | 0.137 | 0.113 | 0.112 | 0.295 | 0.134 | 0.104 | 0.0905 | 0.791 | 0.182 | 0.0924 | 0.0905
